Legend:
[1] = Plasma drug concentration at steady state in the food intake study (LC/MS); format: in vivo; parameters: unit not given here; settings: ob/ob mouse, trunk blood at end of study
Method: (§1) The weight of the food pellets are measured at 5 p.m. and at 8 p.m. for two days before (baseline) and one day after the implantation of the osmotic minipumps. The weigh-in is performed with a computer assisted Mettler Toledo PR 5002 balance. Occasional spillage is corrected for. At the end of the study the animals are killed by neck dislocation and trunk blood sampled for later analysis of plasma drug concentrations.
The plasma sample proteins are precipitated with methanol, centrifuged and the supernatant is transferred to HPLC vials and injected into the liquid chromatography/mass spectrometric system. The mass spectrometer is set for electrospray positive ion mode and Multiple Reaction Monitoring (MRM with the transition m/z 316 ? 221). A linear regression analysis of the standards forced through the origin is used to calculate the concentrations of the unknown samples.

[2] = tested on: ob/ob mouse; experiment: In vivo assay of reduction of food intake (15 h, osmotic minipump infusion); settings: for % Inhibition of Food Intake in ob/ob mice at 50 mg/Kg/day, 15 h: continuous subcutaneous infusion
Method: Obese (ob/ob) mouse is selected as the primary animal model for screening as this mutant mouse consumes high amounts of food resulting in a high signal to noise ratio. To further substantiate and compare efficacy data, the effect of the compounds on food consumption is also studied in wild type (C57BL/6J) mice. The amount of food consumed during 15 hours of infusion of compounds is recorded.
Male mice (obese C57BL/6JBom-Lee and lean wild-type C57B1/6JBom; Bomholtsgaard, Denmark) 8-9 weeks with an average body weight of 50 g (obese) and 25 g (lean) are used in all the studies. The animals are housed singly in cages at 23±1° C., 40-60% humidity and have free access to water and standard laboratory chow. The 12/12-h light/dark cycle is set to lights off at 5 p.m. The animals are conditioned for at least one week before start of study.
The test compounds are dissolved in solvents suitable for each specific compound such as cyclodextrin, cyclodextrin/methane sulfonic acid, polyethylene glycol/methane sulfonic acid, saline. Fresh solutions are made for each study. […] The purity of the test compounds is of analytical grade.
The animals are weighed at the start of the study and randomized based on body weight. Alzet osmotic minipumps (Model 2001 D; infusion rate 8 μl/h) are used and loaded essentially as recommended by the Alzet technical information manual (Alza Scientific Products, 1997; Teeuwes and Yam, 1976). Continuous subcutaneous infusion with 24 hours duration is used. The minipumps are either filled with different concentrations of test compounds dissolved in vehicle or with only vehicle solution and maintained in vehicle pre-warmed to 37° C. (approx. 1 h). The minipumps are implanted subcutaneously in the neck/back region under short acting anesthesia (metofane/enflurane). This surgical procedure lasts approximately 5 min. It takes about 3 h to reach steady state delivery of the compound.
as §1
Food consumption for 15 hours is measured for the three consecutive days and the percentage of basal level values is derived for each animal from the day before and after treatment. The values are expressed as mean±SD and ±SEM from eight animals per dose group. Statistical evaluation is performed by Kruskal-Wallis one-way ANOVA using the percent basal values. If statistical significance is reached at the level of p<0.05, Mann-Whitney U-test for statistical comparison between control and treatment groups is performed.

Row | melting point | Free plasma concentration of the compounds at steady state (Css, u) [1] | Compound | % Inhibition of Food Intake in ob/ob mice at 50 mg/Kg/day, 15 h [2] [%] | % Inhibition of Food Intake in ob/ob mice, 15 h ([2]; dose of 100 mg/kg/d (footnote b)) | % Inhibition of Food Intake in ob/ob mice, 15 h ([2]; dose of 14.8 mg/kg/d (footnote a))
1 |  | 0.23 | Cc1ccc(S(=O)(=O)N(C)c2ccc(N3CCNCC3)c3ccccc23)cc1.Cl [Example 14, N,4-Dimethyl-N-[4-(1-piperazinyl)-1-naphthyl]benzenesulfonamide, hydrochloride] |  | 41^b % | 
2 |  | 0.0076 | Cl.O=S(=O)(Nc1ccc(N2CCNCC2)c2ccccc12)c1cccc(C(F)(F)F)c1 [Example 24, 3-Trifluoromethyl-N-[4-(1-piperazinyl)-1-naphthyl]benzenesulfonamide, hydrochloride] | 46.2 |  | 
3 |  | 0.008 | Cl.O=S(=O)(Nc1ccc(N2CCNCC2)c2ccccc12)c1cccc2ccccc12 [Example 27, Naphthalene-1-sulfonic acid (4-piperazin-1-yl-naphthalen-1-yl)-amide, hydrochloride] | 68.9 |  | 
4 |  | 0.33 | COc1ccc(S(=O)(=O)Nc2ccc(N3CCNCC3)c3ccccc23)cc1.Cl [Example 29, 4-Methoxy-N-(4-piperazin-1-yl-naphthalen-1-yl)-benzenesulfonamide, hydrochloride] | 71 |  | 
5 |  | 0.078 | Cc1ccc(F)cc1S(=O)(=O)Nc1ccc(N2CCNCC2)c2ccccc12.Cl [Example 34, 5-Fluoro-2-methyl-N-(4-piperazin-1-yl-naphthalen-1-yl)-benzenesulfonamide, hydrochloride] | 51.4 |  | 
6 |  | 0.008 | Cc1c(Cl)cccc1S(=O)(=O)Nc1ccc(N2CCNCC2)c2ccccc12.Cl [Example 48, 3-Chloro-2-methyl-N-(4-piperazin-1-yl-naphthalen-1-yl)-benzenesulfonamide, hydrochloride] | 23.8 |  | 

More lines, now with the values behind:

Row | Compound | melting point | Free plasma concentration of the compounds at steady state (Css, u) [1] | % Inhibition of Food Intake in ob/ob mice at 50 mg/Kg/day, 15 h [2] [%] | % Inhibition of Food Intake in ob/ob mice, 15 h ([2]; dose of 100 mg/kg/d (footnote b)) | % Inhibition of Food Intake in ob/ob mice, 15 h ([2]; dose of 14.8 mg/kg/d (footnote a))
7 | Cc1ccc(S(=O)(=O)Nc2ccc(N3CCNCC3)c3ccccc23)cc1.Cl | 181 °C (dec.) |  |  |  | 
8 | Cl.O=S(=O)(Nc1ccc(N2CCNCC2)c2ccccc12)c1ccc2ccccc2c1 [Example 13, 2-N-[4-(1-piperazinyl)-1-naphthyl]naphthalenesulfonamide, hydrochloride] |  | 0.035 | 24.1 |  | 
9 | Cl.O=S(=O)(Nc1ccc(N2CCNCC2)c2ccccc12)c1ccc(Br)cc1 [Example 19, 4-Bromo-N-(4-piperazin-1-yl-naphthalen-1-yl)-benzenesulfonamide, hydrochloride] |  | 0.150 | 69.6 |  | 
10 | Cl.O=S(=O)(Nc1ccc(N2CCNCC2)c2ccccc12)c1ccc(Cl)cc1 [Example 30, 4-Chloro-N-(4-piperazin-1-yl-naphthalen-1-yl)-benzenesulfonamide, hydrochloride] |  | 0.275 | 60.1 |  | 
11 | Cc1cc(Cl)cc(Cl)c1S(=O)(=O)Nc1ccc(N2CCNCC2)c2ccccc12.Cl [Example 53, 2,4-Dichloro-6-methyl-N-(4-piperazin-1-yl-naphthalen-1-yl)-benzenesulfonamide, hydrochloride] |  |  |  |  | 25.7^a %

Source: patent US20100222330A1, “New Compounds” (BIOVITRUM AB, priority 2001, published 2010)
